From patent publication US20050271588A1, “Liposome targeting of matrix metalloproteinase inhibitors” (priority 2001, published 2005)
Positions of bridges follow the written chain, without caps; N, C: chain ends. Residues, ends and D or L forms follow the SMILES beside them.

Columns and labels:
MMP-2 = molecular target: T1, MMP-2 (Homo sapiens, UniProt P08253); assay: Casein zymography, inhibition of MMP-2; format: biochemical; settings: 85 μM peptide
T1 construct: purchased Boehringer Mannheim GmbH (Germany)
T1 sequence (P08253 110-660): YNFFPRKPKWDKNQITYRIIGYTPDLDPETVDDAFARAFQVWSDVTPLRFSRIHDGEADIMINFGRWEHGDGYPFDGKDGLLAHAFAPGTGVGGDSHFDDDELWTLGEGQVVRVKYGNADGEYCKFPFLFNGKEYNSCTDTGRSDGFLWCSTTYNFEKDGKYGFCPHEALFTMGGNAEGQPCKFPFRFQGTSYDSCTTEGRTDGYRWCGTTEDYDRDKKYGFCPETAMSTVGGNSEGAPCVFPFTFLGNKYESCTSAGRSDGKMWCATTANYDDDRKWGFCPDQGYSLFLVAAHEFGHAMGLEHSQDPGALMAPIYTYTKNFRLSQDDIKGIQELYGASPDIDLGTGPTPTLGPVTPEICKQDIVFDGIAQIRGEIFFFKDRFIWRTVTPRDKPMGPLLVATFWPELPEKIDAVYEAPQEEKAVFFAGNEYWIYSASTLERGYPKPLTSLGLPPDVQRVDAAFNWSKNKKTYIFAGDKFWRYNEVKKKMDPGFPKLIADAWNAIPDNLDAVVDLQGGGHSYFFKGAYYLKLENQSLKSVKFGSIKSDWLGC
Procedure: Assay for gelatinases. Inhibition of MMP-9 and MMP-2 by the different synthetic peptides was measured using casein zymography (Halinen et al., 1996). MMP-9 was purified as described (Sorsa et al., 1997). Subsequently, MMP-2 (2.5 μg) or MMP-9 (2.5 μg) was run on a 10% SDS-PAGE containing two mg/ml casein. The gel was first washed in Triton X-100 containing buffer to remove SDS, and it was cut into five slices which were immersed into peptide (CTT, CLP, CWL or STT) containing solutions (85 μM). After incubation for 48 hrs at 37° C., the gels were stained with Coomassie blue, scanned, and the digested areas quantitated using image analysis (Global Lab Image 3.2, Data Translation Inc. and Acuity Imaging Inc., Marlboro, Mass., USA).

MMP-9 = molecular target: T2, MMP-9 (Homo sapiens, UniProt P14780); assay: Gelatinase assay with fluorogenic peptide substrate; format: biochemical; settings: fluorogenic substrate; text says 8 μM 'in both assays'; liposomes 200 μM POPC/POPE
T2 construct: made in house
T2 sequence (P14780 94-707): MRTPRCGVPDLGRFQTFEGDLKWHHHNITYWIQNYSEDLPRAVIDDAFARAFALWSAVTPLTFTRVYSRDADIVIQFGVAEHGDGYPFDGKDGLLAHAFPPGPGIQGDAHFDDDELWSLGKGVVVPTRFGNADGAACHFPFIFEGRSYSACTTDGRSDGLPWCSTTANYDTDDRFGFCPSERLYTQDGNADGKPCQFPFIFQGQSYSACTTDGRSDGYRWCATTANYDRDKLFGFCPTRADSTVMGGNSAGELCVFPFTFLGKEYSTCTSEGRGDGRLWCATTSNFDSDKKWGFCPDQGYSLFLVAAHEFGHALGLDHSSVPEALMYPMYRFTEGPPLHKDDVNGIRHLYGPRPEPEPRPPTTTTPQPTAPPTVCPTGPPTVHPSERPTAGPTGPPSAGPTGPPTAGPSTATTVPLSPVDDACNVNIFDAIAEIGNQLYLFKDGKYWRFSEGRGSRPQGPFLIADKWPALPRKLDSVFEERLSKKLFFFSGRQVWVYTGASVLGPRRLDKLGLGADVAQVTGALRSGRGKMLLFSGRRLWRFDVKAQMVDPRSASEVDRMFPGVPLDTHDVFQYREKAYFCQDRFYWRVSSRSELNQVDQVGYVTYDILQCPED
Procedure: The activity of MMP-9 was measured also using the fluorogenic peptide substrate MCA-Pro-Leu-Ala-Nva-Dpa-Ala-Arg (Calbiochem, San Diego, Calif., USA). More specifically, 50 ng of MMP-9 was preincubated in PBS for 30 min at RT in the absence or presence of CTT or its liposome complex. Subsequently, the fluorogenic substrate was added to a final concentration of 0.1 mM and the incubation was continued at 37° C. for 15 min, whereafter fluorescence intensities were measured with exitation at 340 nm and emission at 390 nm in a microtiter plate reader.

[1] = Penetration of peptides into lipid monolayers (surface pressure); format: physicochemical; settings: eggPC monolayer, peptide 200 μM
Procedure: Interaction of peptides with lipid monolayers. Penetration of peptides into mono-molecular lipid films was measured using magnetically stirred circular wells (subphase volume 400 μl). Surface pressure (π) was monitored with a Wilhelmy wire attached to a microbalance (μ TroughS, Kibron Inc., Helsinki, Finland) connected to a Pentium PC. Lipids were spread on the air-buffer (PBS, pH 7) interface in chloroform (approx. one mg/ml) to different initial surface pressures (π0) and were allowed to equilibrate for 15 min before the addition of the indicated peptides (4 μ1,10 mg/ml in H2O and CWL in DMSO) into the subphase. The increment in π from the initial surface pressures (π0) after the addition of peptide was complete in approximately 20 min and the difference between π0 and the value observed after binding of the peptide into the film was taken as Δπ. All measurements were performed at ambient temperature (˜+24° C.). The data are represented as Δπ vs. […] (Brockman, 1999).

[2] = Trp fluorescence I350/I330 ratio; format: physicochemical
Procedure: Fluorescence spectroscopy. The environments of the tryptophan residues of CTT, STT, CLP, and CWL in liposomes were studied by fluorescence spectroscopy. The center of Trp fluorescence peak is at ˜350 nm when in water, whereas in a hydrophobic environment the emission is centered near 330 nm. Accordingly, changes in the microenvironment of Trp can be monitored by measuring I350/I330, the ratio of the emission at 350 nm to that at 330 nm (Lakowicz, 1999). Tryptophan fluorescence was recorded with a Perkin Elmer LS 50 B spectrofluorometer equipped with a magnetically stirred and thermostated cuvette compartment. […] Excitation and emission bandpasses were 10 nm and 10 nm, respectively. Excitation wavelength was 295 nm, and emission spectra were recorded in the range 300 to 400 nm. […]

U937 cells = assay: Cell killing by Adriamycin-containing liposomes, EthD-1 viability assay; format: cell-based; settings: U937, 24 h, peptide 85 μM, Adriamycin 0.4 μM
Procedure: Viability assays. Peptide-liposome complexes with the encapsulated adriamycin were made as described above, yielding final concentrations of peptide, lipid, and adriamycin of 85 μM, 0.2 mM, and 0.4 μM, respectively, and were subsequently added to a ten μl (10^5 cells) sample of U937 cells. For the detection of dead cells EthD-1 was used. This fluorophore is membrane-impermeable and emits fluorescence only when bound to DNA (Papadopoulos et al., 1994). Accordingly, EthD-1 readily enters dead cells and binds to their DNA, its fluorescence intensity correlating to the amount of dead cells. EthD-1 emission was measured using microplate reader with excitation at 495 nm and emission at 635 nm. Student's t-test was used to assess statistical significance.

MMP-2 and MMP-9 = settings: cited from earlier work

Inhibition of MMP-2 activity (MMP-2): approx. 70%
IC50 (MMP-9): 8 µM
Initial monolayer packing pressure above which membrane penetration was abolished [1]: 38 mN/m
I350/I330 of Trp residue ([2]; in PBS): 1.4
I350/I330 of Trp residue ([2]; presence of LUVs (0.5 mM total phospholipid)): 1.00
Structure (SMILES): CC(C)C[C@@H]1NC(=O)[C@H]([C@@H](C)O)NC(=O)[C@H](Cc2ccccc2)NC(=O)CNC(=O)[C@H](Cc2c[nH]c3ccccc23)NC(=O)[C@H](Cc2c[nH]cn2)NC(=O)[C@H]([C@@H](C)O)NC(=O)[C@H]([C@@H](C)O)NC(=O)[C@@H](N)CSSC[C@@H](C(=O)O)NC1=O [CTT] (H-CTTHWGFTLC-OH; disulfide 1-10; N-terminus and C-terminus assumed)
Increase in killing of cells vs Adriamycin liposomes without peptide (U937 cells): 4.1 fold
Selective inhibition of MMP family members (MMP-2 and MMP-9): selectively inhibit the activity of MMP-2 and MMP-9
